From ChEMBL document CHEMBL1201862, “PubChem BioAssay data set” (2004)
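How tested: cells in 96-well plates exposed to compound for 48 hours at five concentrations. GI50 marks 50% less growth.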 Calls of active or inactive are those of the source. Rule as the data show it: active = GI50 up to about 1.1 µM and inactive = higher.

How the values were obtained:
Assay in all cases: NCI tumour cell line growth inhibition, 48 h
[1] = tested on: SNB-78
[2] = tested on: KM-20L2
[3] = tested on: DLD-1
[4] = tested on: M19-MEL
[5] = tested on: XF498
[6] = tested on: DMS-114
[7] = tested on: DMS-273
[8] = tested on: RXF 631
[9] = tested on: HOP-18

Row | SMILES | GI50 [1] | GI50 [2] | GI50 [3] | GI50 [4] | GI50 [5] | GI50 [6] | GI50 [7] | GI50 [8] | GI50 [9]
1 | COc1cccc(-c2cc(=O)c3cc(C)c(C)c(C(=O)O)c3o2)c1 | > 100 µM (inactive) | > 100 µM (inactive) | > 100 µM (inactive) | > 100 µM (inactive) | > 100 µM (inactive) | > 100 µM (inactive) | > 100 µM (inactive) | > 100 µM (inactive) | 
2 | Nc1c(C(=O)NC23CC4CC(CC(C4)C2)C3)[n+]([O-])c2ccccc2[n+]1[O-] | > 100 µM (inactive) | > 100 µM (inactive) | > 100 µM (inactive) | > 100 µM (inactive) | > 100 µM (inactive) |  | > 100 µM (inactive) |  | > 100 µM (inactive)
3 | C=CCn1cc(C(=O)NC(=O)NCCCCCOC(=O)CCCCCCCCCCC(=O)OCCCCCNC(=O)NC(=O)c2cn(CC=C)c(=O)n(C)c2=O)c(=O)n(C)c1=O | > 100 µM (inactive) | > 100 µM (inactive) | > 100 µM (inactive) | > 100 µM (inactive) | > 100 µM (inactive) | > 100 µM (inactive) | > 100 µM (inactive) |  | 71.8 µM (inactive)
4 | CCCC1=C(CC)C(C(=O)Nc2c(C)cccc2C)=NC(S)N1 (configuration not stated) | > 100 µM (inactive) | > 100 µM (inactive) | > 100 µM (inactive) | > 100 µM (inactive) | > 100 µM (inactive) | > 100 µM (inactive) | > 100 µM (inactive) |  | > 100 µM (inactive)
5 | CCOC(=O)Cc1nc2ccc3c(c2nc1O)C(=O)c1ccccc1C3=O | 70.5 µM (inactive) | > 100 µM (inactive) | 23.7 µM (inactive) | 78.2 µM (inactive) | 52.8 µM (inactive) | 20.5 µM (inactive) | 40.5 µM (inactive) | 39.5 µM (inactive) | 16 µM (inactive)
6 | COc1cc(C2[C@H]3C(=O)N(c4ccc(Cc5ccc(N6C(=O)[C@@H]7ON(c8ccccc8)C(c8cc(OC)c(OC)c(OC)c8)[C@@H]7C6=O)cc5)cc4)C(=O)[C@H]3ON2c2ccccc2)cc(OC)c1OC (some centres not stated) | > 100 µM (inactive) | > 100 µM (inactive) | > 100 µM (inactive) | > 100 µM (inactive) |  | > 100 µM (inactive) | > 100 µM (inactive) | > 100 µM (inactive) | > 100 µM (inactive)
7 | CCc1cc2c(Nc3ccccc3)c3c(nc2s1)CCCC3 | 28.9 µM (inactive) | > 100 µM (inactive) | 19.4 µM (inactive) | 40.7 µM (inactive) | 13.4 µM (inactive) | 27.5 µM (inactive) | > 100 µM (inactive) | 35.2 µM (inactive) | > 100 µM (inactive)
8 | CC1(C)CC(=O)C(CC2C(=O)CCCC2=O)C(=O)C1 | > 100 µM (inactive) | > 100 µM (inactive) | > 100 µM (inactive) | > 100 µM (inactive) | 33.2 µM (inactive) | > 100 µM (inactive) | > 100 µM (inactive) |  | > 100 µM (inactive)
9 | CN(C)CC1CCCCCCCCCCCCC(CN(C)C)C1=O (configuration not stated) | 13.5 µM (inactive) | 11.9 µM (inactive) | 15.6 µM (inactive) | 12.6 µM (inactive) |  | 16.9 µM (inactive) | 10.4 µM (inactive) |  | 16.2 µM (inactive)
10 | COc1ccc(/C=C\c2cc(OC)c(OC)c(OC)c2)cc1OCC(=O)O | 4.17 µM (inactive) | > 100 µM (inactive) | 7.45 µM (inactive) | 4.55 µM (inactive) |  | 4.16 µM (inactive) | 6.22 µM (inactive) | > 100 µM (inactive) | > 100 µM (inactive)
11 | COc1cccc([C@@]2(O)c3c(ccc(O)c3OC)[C@H]2OC)c1OC | 49.7 µM (inactive) | 38.9 µM (inactive) | 35.7 µM (inactive) |  |  |  |  |  | 
12 | O=C1OC(c2ccccc2)=N/C1=C\c1cc(Cl)ccc1Cl | 44.5 µM (inactive) | > 100 µM (inactive) | 33.8 µM (inactive) | > 100 µM (inactive) |  | 49.8 µM (inactive) |  | 25 µM (inactive) | > 100 µM (inactive)
13 | COC(=O)CCC(=O)CC1CC(=O)C2CCCN12 (configuration not stated) | > 100 µM (inactive) | > 100 µM (inactive) | > 100 µM (inactive) | > 100 µM (inactive) | > 100 µM (inactive) | > 100 µM (inactive) | > 100 µM (inactive) |  | > 100 µM (inactive)
14 | CC(=O)OC1CC2C(C)(C)OC(=O)CC(OC(C)=O)[C@]2(C)C2CCC3(C)C(=CCC3c3ccoc3)[C@]12C (some centres not stated) | 48.9 µM (inactive) | 28.1 µM (inactive) | 13 µM (inactive) | 17.5 µM (inactive) | 13.8 µM (inactive) | 19.6 µM (inactive) | 13.7 µM (inactive) |  | 
15 | O=C(N/N=C/c1ccccc1O)c1cccc([N+](=O)[O-])c1 | > 86.3 µM (inactive) | 8.49 µM (inactive) | 45.7 µM (inactive) | 12.9 µM (inactive) | 92.3 µM (inactive) | 3.65 µM (inactive) | 6.43 µM (inactive) |  | 28.5 µM (inactive)
16 | Cc1ccccc1C(=O)Oc1ccc(Oc2ccccc2)cc1 | > 100 µM (inactive) | > 100 µM (inactive) | > 100 µM (inactive) | > 100 µM (inactive) | > 100 µM (inactive) | > 100 µM (inactive) | > 100 µM (inactive) |  | > 100 µM (inactive)
17 | CCCN1C(=O)CNC(=O)c2[nH]cnc21 | > 100 µM (inactive) | > 100 µM (inactive) | > 100 µM (inactive) | > 100 µM (inactive) | > 100 µM (inactive) | > 100 µM (inactive) |  |  | > 100 µM (inactive)
18 | COc1ccc(-c2cc(=O)c3c(O)c(OC)c(O)c(OC)c3o2)cc1OC | 42 µM (inactive) | > 100 µM (inactive) | 54.8 µM (inactive) | > 100 µM (inactive) | 78.3 µM (inactive) | > 100 µM (inactive) | 54.1 µM (inactive) |  | 54.3 µM (inactive)
19 | CCCCCCCCCCCCCCCCCc1nnc(N)o1 | > 100 µM (inactive) | > 100 µM (inactive) | > 100 µM (inactive) | > 100 µM (inactive) | > 100 µM (inactive) |  | > 100 µM (inactive) | > 100 µM (inactive) | 
20 | CSc1nc(NC2OCC(OC(C)=O)C(OC(C)=O)C2OC(C)=O)c(/N=C(\C)C(C)=O)c(=O)n1C (configuration not stated) | > 100 µM (inactive) | > 100 µM (inactive) | > 100 µM (inactive) | > 100 µM (inactive) | > 100 µM (inactive) | > 100 µM (inactive) | > 100 µM (inactive) | > 100 µM (inactive) | > 100 µM (inactive)
21 | CCC(C)SC1SCC2C(=O)N(C)C3(CC3C)C(=O)OCC(NC(=O)c3nc4ccccc4cc3O)C(=O)NC(C)C(=O)N(C)C1C(=O)N(C)C1(CC1C)C(=O)OCC(NC(=O)c1nc3ccccc3cc1O)C(=O)NC(C)C(=O)N2C (configuration not stated) | 0.01 µM (active) | 0.000137 µM (active) | 0.0002 µM (active) | 3.3e-05 µM (active) | 5.07e-05 µM (active) | 0.000107 µM (active) | 2.3e-05 µM (active) | 0.000195 µM (active) | 0.000232 µM (active)
22 | CN1N=C(Nc2ccccc2)Sc2c1cnn(-c1ccccc1)c2=O |  | > 100 µM (inactive) | > 100 µM (inactive) | > 100 µM (inactive) |  | 30.4 µM (inactive) | > 100 µM (inactive) |  | 20 µM (inactive)
23 | COc1cc2ccc3c4cc(OC)c(OC(C)C)cc4c[n+](C)c3c2cc1OC |  | > 100 µM (inactive) | > 100 µM (inactive) | 29 µM (inactive) |  | 9.64 µM (inactive) |  |  | 23.4 µM (inactive)
24 | Cn1cnc(S[C@H]2[C@H]3C(=O)C=C4S[C@H]5C[C@]42C2=C(N5)C(=O)c4[nH]cc5c4C2=[N+]3CC5)c1C[C@H](N)C(=O)O | 20.9 µM (inactive) | 4.47 µM (inactive) | 17.2 µM (inactive) | 8.73 µM (inactive) | 15.3 µM (inactive) | 2.52 µM (inactive) | 12.7 µM (inactive) |  | 52.1 µM (inactive)
25 | Cc1ccccc1-n1c(C)nc(-c2ccccc2)cc1=O | > 100 µM (inactive) | > 100 µM (inactive) | > 100 µM (inactive) | > 100 µM (inactive) |  | > 100 µM (inactive) | > 100 µM (inactive) | > 100 µM (inactive) | > 100 µM (inactive)
26 | Cc1c2ccncc2c(C)c2c1[nH]c1ccc(OC(C)C)cc12 | 2.89 µM (inactive) | 1.18 µM (inactive) | 1.35 µM (inactive) | 1.71 µM (inactive) | 1.52 µM (inactive) | 1.49 µM (inactive) | 0.681 µM (active) |  | 0.318 µM (active)
27 | Cc1ccc(Oc2ccc([N+](=O)[O-])cc2[N+](=O)[O-])c(C)c1 | 61.4 µM (inactive) | > 10 µM (inactive) | 56.4 µM (inactive) | 51.3 µM (inactive) | 42.1 µM (inactive) | 26.2 µM (inactive) | 28.1 µM (inactive) | 21.4 µM (inactive) | 
28 | Cc1cc(Cl)ccc1Nc1nc2c(s1)C(=O)c1ccccc1C2=O | 14.5 µM (inactive) | 18.9 µM (inactive) | 5.45 µM (inactive) | 0.728 µM (active) |  | 2.2 µM (inactive) | 2.52 µM (inactive) | 6.46 µM (inactive) | 3 µM (inactive)
